Molecular target: T1, FPRL1 (Homo sapiens, UniProt P25090)
T1 construct: expressed in transfected cells; host or cells: RBL-2H3 (rat basophilic leukemia) cells, G418-selected
T1 sequence (P25090 1-351): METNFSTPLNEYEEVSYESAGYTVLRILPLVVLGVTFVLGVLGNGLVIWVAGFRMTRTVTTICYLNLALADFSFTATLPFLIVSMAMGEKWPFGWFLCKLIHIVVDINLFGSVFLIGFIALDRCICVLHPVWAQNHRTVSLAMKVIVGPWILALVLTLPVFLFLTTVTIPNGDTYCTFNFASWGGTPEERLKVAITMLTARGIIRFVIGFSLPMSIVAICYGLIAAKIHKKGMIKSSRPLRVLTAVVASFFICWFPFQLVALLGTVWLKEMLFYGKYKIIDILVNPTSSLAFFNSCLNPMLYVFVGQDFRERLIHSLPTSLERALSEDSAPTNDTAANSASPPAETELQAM
Experiment: Akt phosphorylation in FPRL1-expressing RBL-2H3 cells (immunoblot)
Assay type: cell-based
Conditions: 10 μM peptides 5 min (WKYMVm time course 1 μM)
Procedure: It is well known that activation of chemoattractant receptors induces Akt activation via PI3K (19). Stimulation of cells with the peptides, electrophoresis and immunoblot analysis were performed according to the same method as in Example 5.
FPR- or FPRL1-expressing RBL-2H3 cells were stimulated with 1 μM WKYMVm for various periods of time (FIG. 4A). Two cells were preincubated with a vehicle or 100 ng/ml of PTX (24 hr), 50 μM of LY294002 (15 min), 5 μM of GFX (15 min), 10 μM BAPTA/AM (60min), or 50 μM PD98059 (60 min) prior to treatment with 1 μM of WKYMVm (FIG. 4B). FPR- and FPRL1-expressing RBL2H3 cells were stimulated with 10 μM of WKYMVm and the present peptides for 2 min or 5 min, respectively (FIG. 4C). Each sample (30 μg of protein) was subjected to 10% SDS-PAGE and phosphorylated Akt was determined by immunoblot analysis with an anti-phospho-Akt antibody. A western blot analysis with an anti-Akt antibody was performed to confirm that the same amounts of samples were used for the experiments. The results are shown FIGS. 4A to 4C. Results of FIGS. 4A to 4C are the representative of 3 independent experiments.

## CSCC[C@H](NC(=O)[C@H](Cc1ccc(O)cc1)NC(=O)[C@H](CCCCN)NC(=O)[C@@H](N)Cc1c[nH]c2ccccc12)C(=O)N[C@H](C(=O)N[C@H](CCSC)C(N)=O)C(C)C [WKYMVm-NH2, Trp-Lys-Tyr-Met-Val-D-Met-NH2, reference compound]
  Akt phosphorylation: stimulated Akt phosphorylation

From US7517857B2, “Immune-modulating peptide” (POSCO, priority 2002, dated 2009)
